# Entries after “also recorded” stand apart in the source; their conditions may differ.
# Key:
# [1] = tested on: PC-3 human prostate cells; assay: PC-3 luciferase intracardiac metastasis model (bioluminescence); format: in vivo, nude mice
# Protocol: Male nude mice were injected into their left ventricle with PC-3 human prostate cells (3×10^6) transfected with the gene for luciferase. The success of the intracardiac transfections was verified by a bioluminescence scan after the injection. On day 14, the mice with established bone tumor burden were randomized into four treatment groups (N=10): Taxotere® alone (20 mg/kg once a week for three weeks, i.v.), TH302 alone (50 mg/kg daily, 5 days a week for 3 weeks), combination treatment with both agents, and vehicle. Bioluminescence imaging was performed under anesthesia using an IVIS 50 optical imaging system.
# [2] = Single-dose toxicity in rats; format: in vivo
# Protocol: A single-dose of TH302 was administered to rats and dogs over 30 min in order to achieve a rapid increase to relatively high drug levels. Rats were administered 50, 100, and 200 mg/kg, and dogs at 8, 16 and 32 mg/kg of TH302. […] These changes at the lowest toxicity level were fully reversible within 2 weeks.
# [3] = tested on: H460 NSCLC cancer cells; assay: H460 pleural cavity metastatic tumor model; format: in vivo, mice; conditions: TH302 alone Q3D×5, 100 mg/kg, i.v.
# Protocol: Metastatic tumors were also grown in mice by injecting H460 NSCLC cancer cells into the pleural cavity. Metastases were observed among other organs in the lungs and ovary. […] Thus, TH302 is effective in treatment of metastatic tumors, when administered alone and in combination with another anti cancer agent.
# [4] = Pharmacokinetics in beagle dogs (20 mg/kg i.v.); format: in vivo; conditions: dog, plasma, iv
# Protocol: Pharmacokinetic studies were performed in male CD-1 (50 mg/kg i.p. or orally (p.o.)) or female nude mice (50 mg/kg i.v. or i.p.), male Sprague-Dawley rats (1, 5, 20 and 50 mg/kg i.v. and 100 mg/kg, p.o.), beagle dogs (20 mg/kg, i.v.) and cynomologus monkeys (20 mg/kg i.v.). Plasma TH302 concentrations were analyzed using a LC/MS method and the pharmacokinetic parameters computed using a noncompartmental method. Interspecies scaling was performed according to standard methods.
# [5] = TH302 alone 50 mg/kg daily, 5 days a week for 3 weeks, end of the study (day 43)
smiles,measurement,setting,value
Cn1c(COP(=O)(NCCBr)NCCBr)cnc1[N+](=O)[O-] [TH302],"toxicities (weight loss, deaths)","[1]; TH302 50 mg/kg daily 5 days a week for 3 weeks, Taxotere 20 mg/kg once a week for three weeks i.v., or both",minimal weight loss; also recorded: no toxicity beyond Taxotere® related toxicities
same,reduction of bone metastases,[1]; [5],94%
same,reduction of soft tissue tumor burden,[1]; [5],95%
same,affected organs at the highest dose level,[2]; 200 mg/kg single dose,"bone marrow, kidney, thymus and intestine"
same,lethality,"[2]; single dose over 30 min, highest dose 200 mg/kg",lethality was observed
same,primary findings at the lowest toxicity level,[2]; single dose study,reduction in white blood cell counts accompanied only by moderate weight loss in male rats
same,time to full reversal of changes at the lowest toxicity level,[2]; single dose study,≤ 2 weeks
same,species specific toxicity at the highest dose,"[2]; single dose, 200 mg/kg",rat adipose and spleen
same,metastatic tumor mass,[3],visible reduction in metastatic tumor mass
same,half-life,[4]; read-out: Mean t1/2,49.2 min
same,clearance,[4]; read-out: mean Cl (converted),54.7 mL/min/kg
same,Vd,[4]; read-out: mean Vss,1.98 L/kg

# Reference: patent publication US8552048B2, “Phosphoramidate alkylator prodrugs for the treatment of cancer” (Threshold Pharmaceuticals, Inc., priority 2006, dated 2013)
